The record followed here is US20040091578A1 (priority 2001, published 2004).

For one test, the system named is Glutenin 60-110 kDa. Kind of test: Reductant specificity of glutenins, mBBr/SDS-PAGE. Format: biochemical, Triticum durum. As to the method: (§1) For isolation of insoluble storage proteins, semolina (0.2 g) was extracted sequentially with 1 ml of the following solutions for the indicated times at 25° C.: (1) 50 mM Tris-HCl, pH 7.5 (20 min); (2) 70% ethanol (2 hr); and (3) 0.1 M acetic acid (2 hr). During extraction, samples were placed on an electrical rotator and, in addition, occasionally agitated with a vortex mixer. After extraction with each solvent, samples were centrifuged (12,000 rpm for 5 min) in an Eppendorf microfuge and, supernatant fractions were saved for analysis. In between each extraction, pellets were washed with 1 ml of water, collected by centrifugation as before and the supernatant wash fractions were discarded. By convention, the fractions are designated: (1) albumin/globulin; (2) gliadin; and (3) glutenin.
(§2) Reactions were carried out in 100 mM Tris-HCl buffer, pH 7.9. As indicated, 0.7 μg NTR and 1 μg thioredoxin (both from E. coli unless specified otherwise) were added to 70 μl of this buffer containing 1 mM NADPH and 10 μg of target protein.
(§3) SDS-polyacrylamide electrophoresis of the mBBr-derivatized samples was performed in 15% gels at pH 8.5 as described by Laemmli, U. K. (1970), Nature 227:680-685. Gels of 1.5 mm thickness were developed for 16 hr. at a constant current of 9 mA.
(§4) The Polaroid negatives of fluorescent gels and prints of wet protein stained gels were scanned with a laser densitometer (Pharmacia-LKB UltroScan XL). Fluorescence was quantified by evaluating peak areas after integration with GelScan XL software.

A further test concerns Glutenin 30-40 kDa. Kind of test: Reductant specificity of glutenins, mBBr/SDS-PAGE. Format: biochemical, Triticum durum. As to the method:
as §1, §2, §3, §4

For test [1], the system named is dogs sensitized to cow's milk. Kind of test: Skin tests, ED50 and relative allergenicity (Example 44). To be noted: all dogs tested. Format: in vivo, dog. As to the method: Reduction and Blocking of Protein Disutfide Bond. […] Following gel filtration with a Sephadex G-25 column (Amersham Pharmacia) to remove reductants, the reduced protein (less than 0.25 mg/ml) was incubated either without addition or with 10 mM oxidized glutathione (GSSG) or 10 mM cystamine for 3 days on ice. The mixtures were then subjected to a second gel filtration on a Sephadex G-25 column to remove excess GSSG and cystamine. If necessary, the resultant preparations were concentrated by ultrafiltration with Centricon YM-3 filter (Millipore). Heat treatment of NTS-reduced BLG was carried out for 1 hour at 55° C. after reduction at 4° C. overnight. Raw cow's milk (47 mg protein/ml) was reduced with 50 mM DTT and blocked with cystamine and GSSG as described above for BLG. Heated milk was prepared by incubation for 1 hour at 55° C. and gel filtration with A Sephadex G-25 column.
Skin Tests. The background of the dog colony, immunization schedule and procedure for skin testing have been previously described in Examples 36-39 and also in del Val et al., 1999, Buchanan et al., 1997, Ermel et al., 1997, Frick and Brooks, 1983, herein incorporated by reference. Here, 3 litters of the 7th generation designated 7FA, 7FB and 7FC were immunized with commercial preparations (Bayer) of cow's milk, soybean and other food extracts (wheat or barley and walnut, Brazil nut and peanut) and also ragweed pollen. BLG samples for testing were prepared in half-log dilutions with PBS; 100 μL of each dilution was injected intradermally on the dog's abdomen.
Estimation of Relative Allergenicity. Wheal area of each spot was plotted by the Lineweaver-Burk double-reciprocal plot to obtain the maximum wheal area. The log of the dose of BLG that effects a half-maximum of wheal area with the control sample, termed Effective Dose 50 (ED50), was calculated and used for statistical analysis. For simplification, ratio of the reciprocal of ED50 to that of the control sample is presented below as relative allergenicity.

The next test deals with allergic dogs. As to the kind of experiment: Skin tests with giant ragweed pollen extract. Format: in vivo, dog. As to the method: Reduction of pollen proteins by the thioredoxin system. Giant ragweed allergen extract, purchased from Bayer Inc., was analyzed for protein by the Bradford assay using bovine γ-globulin as standard (Wong, J. H. et al. (1995) “Thioredoxin and seed proteins” Methods Enzymol 252:228-240). […] The extent of reduction was determined by the SDS-PAGE/monobromobimane procedure as previously described above and also as described by Wong et al. (Ibid.). Gels were visualized under U.V.
Skin tests. Procedures to measure the type I hypersensitivity reaction by skin tests in allergic […] were substantially the same to those previously described above (see, Examples 36, 37 and 39). In brief, Evans blue dye 0.5% (0.2 ml/kg) was injected intravenously 5 minutes prior to skin testing. Aliquots of 0.1 ml of pollen allergen extract were injected intradermally on ventral abdominal skin in half-log dilutions. Skin tests were read blindly by the same experienced blinded observer scoring two perpendicular diameters for each blue spot. Appropriate negative controls (diluted in PBS) were included for each animal tested.
Data analysis. The statistical significance of the skin test results showing the thioxedoxin-linked mitigation of pollen allergens was determined by paired one-tailed, t-tests. […] The t-tests were completed for each dilution series (0.07 to 219 ng allergen) at 0.05 level of significance on all sensitive dogs (df≅8).

For the next test, the system named is trypsin. As to the kind of experiment: Trypsin proteolysis of purified milk allergens. Format: biochemical. To be noted: 10 μg NTS reduced protein, 2 μg trypsin. As to the method: The analysis of the reduction was done using the mBBr/SDS-PAGE techniques. Further in this study, when 10 μg of an NTS reduced purified milk allergen protein, β-lactoglobulin (Sigma Chemical Co.), was treated with 2 μg of trypsin, proteolysis was 100% as compared with only 50% for the identically trypsin treated oxidized β-lactoglobulin. […] However, 10 μg of purified α-lactalbumin reduced by the NTS was proteolyzed 80% by trypsin. Also 10 μg of α-lactalbumin reduced by 0.8 μg of thioredoxin and 0.5 mM DTT was 100% proteolyzed by 2 μg of trypsin.

Like-named read-outs stand apart in the source and are kept apart here.

As to `N[C@@H](CCC(=O)N[C@@H](CS)C(=O)NCC(=O)O)C(=O)O` [Glutathione, glutathione, reference compound], in the test on Glutenin 60-110 kDa, the “Glutenin, % Relative Reduction, 60-110 kDa” value turned out to be 31%. For the same molecule, the “Glutenin, % Relative Reduction, 30-40 kDa” value in the test with Glutenin 30-40 kDa came to 29%.

Take “NTS-reduced & heated: BLG heated for 1 hour at 55° C. following NTS-reduction at 4° C. overnight”: in test [1], the “times less allergenic than native (control) BLG, from ED50” value (“times less allergenic than native” for short) is given as “about 5 times”.

On to “NTS/CYM: BLG treated with cystamine following NTS-reduction”, for which the “times less allergenic than native” value in test [1] is reported as “about 2.5 times”.

Take “NTS/GSSG: BLG treated with GSSG following NTS-reduction”: in test [1], the “times less allergenic than native” value is on record as “about 2.5 times”.

For “Thioredoxin: E. coli thioredoxin reduced by NADPH and NTR”, the “Mitigation of skin test response” value is “Not Signiticant” in the test on allergic dogs (Allergen 0.07 ng); “Not Significant” in the test with allergic dogs (Allergen 0.22 ng); “Significant” in the test on allergic dogs (Allergen 0.66 ng); “Significant” in the test on allergic dogs (Allergen 2.2 ng); “Significant” in the test with allergic dogs (Allergen 6.6 ng); “Significant” with allergic dogs (Allergen 22 ng). Also, the “Mitigation of skin test response” value in the test on allergic dogs (Allergen 66 ng) was “Significant”; in the test on allergic dogs (Allergen 219 ng, paired one tail t test, P 0.05) it was “Not Significant”. For the same molecule, the “Glutenin, % Relative Reduction, 60-110 kDa” value in the test on Glutenin 60-110 kDa (thioredoxin (NTS) = 100) is on record as 100%. For the same molecule, the “Glutenin, % Relative Reduction, 30-40 kDa” value in the test on Glutenin 30-40 kDa (thioredoxin (NTS) = 100) was 100%.

B1: Glutaredoxin: E. coli glutaredoxin with NADPH, reduced glutathione and glutathione reductase (NGS) (protein, UniProt P68688 1-85, looked up)
Glutaredoxin 1: MQTVIFGRSGCPYCVRAKDLAEKLSNERDDFQYQYVDIRAEGITKEDLQQKAGKPVETVPQIFVDQQHIGGYTDFAAWVKENLDA
modifications: with NADPH, glutathione, glutathione reductase
Turning to B1, in the test on Glutenin 60-110 kDa (thioredoxin (NTS) = 100), the “Glutenin, % Relative Reduction, 60-110 kDa” value stood at 50%. For the same molecule, the “Glutenin, % Relative Reduction, 30-40 kDa” value with Glutenin 30-40 kDa (thioredoxin (NTS) = 100) was 40%.

B2: α-lactalbumin: purified milk allergen (Sigma) (protein, UniProt P00711 20-142, looked up)
Alpha-lactalbumin: EQLTKCEVFRELKDLKGYGGVSLPEWVCTTFHTSGYDTQAIVQNNDSTEYGLFQINNKIWCKDDQNPHSSNICNISCDKFLDDDLTDDIMCVKKILDKVGINYWLAHKALCSEKLDQWLCEKL
Molecule B2 yielded a proteolysis by trypsin in the test with trypsin of 80%.
